The source of these data is patent publication US9206192B2, “Trolox derivative-modified fat-soluble anti-cancer pharmaceutical compounds, preparations, preparing methods and use thereof” (CHIA TAI TIANQING PHARMACEUTICAL GROUP CO., LTD, priority 2011, dated 2015).

Usually GI50 stands for the concentration that inhibits growth by half.

Type in all cases: cell-based
Test [1] concerns lung cancer cells (A549). Description: In vitro cytotoxicity test, MTT assay, lung cancer cells. To be noted: Homo sapiens, 72 h incubation. As to the method:
(§1) In this example, GI50 values (the concentration of a drug that inhibits the growth of cancer cells by 50%) of the novel anti-cancer pharmaceutical compounds of the present invention on the inhibition of human ovarian cancer cells (A2780s), colon cancer cells (HT-29), liver cancer HePG2 cells and lung cancer cells (A549) were determined by MTT assay, and further compared with that of anti-cancer drug irinotecan to evaluate in vitro cytotoxicity of the pharmaceutical compounds of the present invention.
(§2) MTT assay: Cells in logarithmic growth phase were seeded in 96-well culture plate at 100 μL/well and a cell density of 10^5/mL. After the cells were incubated for 18 h, the medium was replaced, and thereto the test compound samples with different concentrations were then added at 150 μL/well. The blank group was the wells to which only a RPMI 1640 culture medium comprising 10% fetal bovine serum was added without the addition of cells (for zero setting). The negative control group was the wells to which the equal volume of RPMI 1640 culture medium comprising 10% fetal bovine serum was added and the positive control group was the wells to which the equal volume of 13 μg/ml positive drug was added. Each group had three wells. After the cells were incubated for 72 h, MTT (5 mg/mL) solution was added at 15 μL/well, and the cells were further incubated for 4 h. The supernatant was discarded, and DMSO was added at 150 μL/well. The mixture was shaken and blended for 10 min. After the crystal was completely dissolved, the absorbance (D) value of each well was detected on microplate reader at a wavelength of 490 nm. The cell growth inhibition rate was calculated according to the following equation: Cell growth inhibition rate=(1−average D value of test group/average D value of control group)×100%.

Test [2] relates to human ovarian cancer cells (A2780s). Put plainly: In vitro cytotoxicity test, MTT assay, ovarian cancer cells. The following applies: 72 h incubation, read-out: GI50 Ovarian cancer cell (A2780s). How it is done: as §1, §2
Test [3] concerns liver cancer HePG2 cells. Description: In vitro cytotoxicity test, MTT assay, liver cancer cells. To be noted: Homo sapiens, 72 h incubation, read-out: GI50 Live cancer cells (HePG2). As to the method:
as §1
as §2, with “After the cells were incubated for 72 h, MTT (5 mg/mL) solution was added at 15 μL/well, and the cells were further incubated for 4 h. The supernatant was discarded, and DMSO was added at 150 μL/well. The mixture was shaken and blended for 10 min.” left out, “The cell growth inhibition rate was calculated according to the following equation: Cell growth inhibition rate=(1−average D value of test group/average D value of control group)×100%.” left out

For test [4], the system named is colon cancer cells (HT-29). Put plainly: In vitro cytotoxicity test, MTT assay, colon cancer cells. The following applies: Homo sapiens, 72 h incubation. As to the method: as §1
as §2, with “After the cells were incubated for 72 h, MTT (5 mg/mL) solution was added at 15 μL/well, and the cells were further incubated for 4 h. The supernatant was discarded, and DMSO was added at 150 μL/well. The mixture was shaken and blended for 10 min.” left out, “The cell growth inhibition rate was calculated according to the following equation: Cell growth inhibition rate=(1−average D value of test group/average D value of control group)×100%.” left out
A general note: Tetrazolium assays rely on reduction of a dye to a coloured formazan, in cell work by metabolically active cells.

In the case of `CCc1c2c(nc3ccc(OC(=O)N4CCC(N5CCCCC5)CC4)cc13)-c1cc3c(c(=O)n1C2)COC(=O)[C@]3(O)CC` [Irinotecan, irinotecan, reference compound], the GI50 in test [1] is 0.0581 µM; in test [2], 19.3 µM; in test [3], 9.44 µM; in test [4], 15.2 µM.
`CCCCCCOC(=O)[C@@]1(C)CCc2c(C)c(OC(=O)CCC(=O)Oc3ccc4nc5c(c(CC)c4c3)Cn3c-5cc4c(c3=O)COC(=O)[C@]4(O)CC)c(C)c(C)c2O1` [MXL-001, 7-ethyl-10-hydroxycamptothecin R-(+)-6-hydroxy-2,5,7,8-tetramethylchroman-2-carboxylic acid n-hexyl ester-6-succinate]: the GI50 in test [1] worked out at 4.6 µM; in test [2] it was 0.0409 µM.
The corresponding values for `CCCCCCCCCCCCOC(=O)[C@@]1(C)CCc2c(C)c(OC(=O)CCC(=O)Oc3ccc4nc5c(c(CC)c4c3)Cn3c-5cc4c(c3=O)COC(=O)[C@]4(O)CC)c(C)c(C)c2O1` [MXL-002, 7-ethyl-10-hydroxycamptothecin R-(+)-6-hydroxy-2,5,7,8-tetramethylchroman-2-carboxylic acid dodecyl ester-6-succinate] are 2.1 µM and 0.0178 µM.
With `CCCCCCCCCCCCCCCCOC(=O)[C@@]1(C)CCc2c(C)c(OC(=O)CCC(=O)Oc3ccc4nc5c(c(CC)c4c3)Cn3c-5cc4c(c3=O)COC(=O)[C@]4(O)CC)c(C)c(C)c2O1` [MXL-003, 7-ethyl-10-hydroxycamptothecin R-(+)-6-hydroxy-2,5,7,8-tetramethylchroman-2-carboxylic acid hexadecyl ester-6-succinate], the GI50 in test [1] was 0.169 µM; in test [2] it was 0.0169 µM; in test [3], 0.164 µM; in test [4], 0.045 µM.
